Experimental data as given in patent US9486506B2 (Novo Nordisk A/S, priority 2011, dated 2016).
Numbered stars: 1 amine (or outer) side, 2 acyl side, 3 side chain; on linkers, the order of the positions; unused ones are H or OH. Side chains are listed from the residue outwards. Peptide text beside a SMILES is read from it. * marks the point of attachment. C18 diacid = O=C(O)CCCCCCCCCCCCCCCCC(=O)*; γGlu = O=C(O)[C@H](CCC(=O)[*:2])N[*:1]; AEEA = NCCOCCOCC(=O)O

Legend:
[1] = target: T1, glucagon receptor (Homo sapiens, UniProt P47871); assay: Assay (I) Glucagon activity (cAMP biosensor, FLIPR); type: cell-based
T1 construct: expressed in transfected cells

[2] = Assay (X) Chemical stability assessment by RP-UPLC; type: physicochemical; details: pH 8.15, 14 days at 37° C. vs 5° C., 333 μM
Procedure: Chemical Stability Assessment
Lyophilized samples were dissolved in buffer (see below for detailed compositions) to a final concentration of 333 μM and a pH of 8.15, and were incubated for 14 days at 5° C. and 37° C. followed by RP-UPLC analysis. Purity was defined as the area percentage of the main peak in relation to the total area of all integrated peaks in each chromatogram. Purity loss after 14 days at 37° C. was determined as the difference in purity between the samples incubated at 5° C. and 37° C., divided by the purity of the sample after incubation for 14 days at 5° C.
RP-UPLC analysis was performed using a Waters BEH130 2.1 mm×150 mm, 1.7 μm column operated at 50° C. and a flow rate of 0.4 mL/min using a mobile phase system consisting of typically A: 50 mM Phosphate, 10 w/w % Acetonitrile pH 3 and B: 80 v/v Acetonitrile. UV-detection was performed at 215 nm. The typical gradient profile used for most of the samples is shown below.
For some individual analogues eluting at substantially different retention times compared with the majority of analogues, some adjustments to the gradient profile were made to better enable purity assessment comparison across samples. Also the composition of the channel B mobile phase component was in some of the analyses exchanged for a 90 v/v % Acetonitrile solvent solution in an attempt to better handle carry-over of material from one injection to the next in the sequence. This was however compensated for by recalculating the gradient profile appropriately.
Buffer: • 50 mM Dinatriumphosphatdihydrat • 184 mM Propylenglycol • 58 mM Phenol • pH adjusted to 8.15 with H3PO4. In cases where pH was adjusted to 8.15 after re-suspension of analogues, 0.2 M NaOH was used. Assay (XI) Pharmacokinetic Study in Minipigs

T1 sequence (P47871 26-477): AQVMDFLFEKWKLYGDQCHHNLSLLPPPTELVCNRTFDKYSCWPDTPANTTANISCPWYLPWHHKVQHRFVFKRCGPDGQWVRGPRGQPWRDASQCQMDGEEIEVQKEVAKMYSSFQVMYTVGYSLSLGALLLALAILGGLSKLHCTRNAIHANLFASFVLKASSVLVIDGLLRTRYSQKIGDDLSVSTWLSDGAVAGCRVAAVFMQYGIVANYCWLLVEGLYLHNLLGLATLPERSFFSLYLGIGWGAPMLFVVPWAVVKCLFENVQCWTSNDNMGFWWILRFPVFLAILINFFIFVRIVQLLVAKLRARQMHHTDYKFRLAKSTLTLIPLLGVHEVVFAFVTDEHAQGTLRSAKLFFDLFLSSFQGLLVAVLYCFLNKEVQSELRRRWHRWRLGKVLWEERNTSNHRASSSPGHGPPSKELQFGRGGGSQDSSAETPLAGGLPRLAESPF

| Structure (SMILES) | EC50 [1] [nM] | Chemical stability [Purity loss/14 days 37 C.] [2] [%] |
| --- | --- | --- |
| CC(C)C[C@H](NC(=O)[C@H](Cc1ccc(O)cc1)NC(=O)[C@H](CCCCN)NC(=O)[C@H](CO)NC(=O)[C@H](Cc1ccc(O)cc1)NC(=O)[C@H](CC(=O)O)NC(=O)[C@H](CO)NC(=O)[C@@H](NC(=O)[C@H](Cc1ccccc1)NC(=O)[C@@H](NC(=O)CNC(=O)[C@H](CCC(N)=O)NC(=O)[C@H](CO)NC(=O)[C@@H](N)Cc1c[nH]cn1)[C@@H](C)O)[C@@H](C)O)C(=O)N[C@@H](CC(=O)O)C(=O)N[C@@H](CCC(=O)O)C(=O)N[C@@H](CCCNC(=N)N)C(=O)N[C@@H](CCCNC(=N)N)C(=O)N[C@@H](C)C(=O)N[C@@H](CCC(N)=O)C(=O)N[C@@H](CC(=O)O)C(=O)N[C@@H](Cc1ccccc1)C(=O)N[C@H](C(=O)N[C@@H](CCCCNC(=O)CC[C@H](NC(=O)CC[C@H](NC(=O)COCCOCCNC(=O)COCCOCCNC(=O)CC[C@H](NC(=O)CCCCCCCCCCCCCCCCC(=O)O)C(=O)O)C(=O)O)C(=O)O)C(=O)N[C@@H](Cc1c[nH]c2ccccc12)C(=O)N[C@@H](CC(C)C)C(=O)N[C@@H](CC(C)C)C(=O)N[C@@H](CO)C(=O)N[C@H](C(=O)O)[C@@H](C)O)C(C)C [Example 41, N^ε24-[(4S)-4-carboxy-4-[[(4S)-4-carboxy-4-[[2-[2-[2-[[2-[2-[2-[[(4S)-4-carboxy-4-(17-carboxyheptadecanoylamino)butanoyl]amino]ethoxy]ethoxy]acetyl]amino]ethoxy]ethoxy]acetyl]amino]butanoyl]amino]butanoyl]-[Glu16,Lys24,Leu27,Ser28]-Glucagon] | 0.13 | 7.3 |
| CC(C)C[C@H](NC(=O)[C@H](Cc1ccc(O)cc1)NC(=O)[C@H](CCCNC(=N)N)NC(=O)[C@H](CO)NC(=O)[C@H](Cc1ccc(O)cc1)NC(=O)[C@H](CC(=O)O)NC(=O)[C@H](CO)NC(=O)[C@@H](NC(=O)[C@H](Cc1ccccc1)NC(=O)[C@@H](NC(=O)CNC(=O)[C@H](CCC(N)=O)NC(=O)[C@H](CO)NC(=O)[C@@H](N)Cc1c[nH]cn1)[C@@H](C)O)[C@@H](C)O)C(=O)N[C@@H](CCC(=O)O)C(=O)N[C@@H](CO)C(=O)N[C@@H](CCCNC(=N)N)C(=O)N[C@@H](CCCNC(=N)N)C(=O)N[C@@H](C)C(=O)N[C@@H](CCC(N)=O)C(=O)N[C@@H](CCC(=O)O)C(=O)N[C@@H](Cc1ccccc1)C(=O)N[C@H](C(=O)N[C@@H](CCCCNC(=O)CC[C@H](NC(=O)CC[C@H](NC(=O)COCCOCCNC(=O)COCCOCCNC(=O)CC[C@H](NC(=O)CCCCCCCCCCCCCCCCC(=O)O)C(=O)O)C(=O)O)C(=O)O)C(=O)N[C@@H](Cc1c[nH]c2ccccc12)C(=O)N[C@@H](CC(C)C)C(=O)N[C@@H](CC(C)C)C(=O)N[C@@H](CO)C(=O)N[C@H](C(=O)O)[C@@H](C)O)C(C)C [Example 52, N^ε24-[(4S)-4-carboxy-4-[[(4S)-4-carboxy-4-[[2-[2-[2-[[2-[2-[2-[[(4S)-4-carboxy-4-(17-carboxyheptadecanoylamino)butanoyl]amino]ethoxy]ethoxy]acetyl]amino]ethoxy]ethoxy]acetyl]amino]butanoyl]amino]butanoyl]-[Arg12,Glu15,Glu21,Lys24,Leu27,Ser28]-Glucagon] (H-HSQGTFTSDYSRYLESRRAQEFVK([γGlu-γGlu-AEEA-AEEA-γGlu-C18 diacid])WLLST-OH) | 0.289 | 6.3 |
| CC(C)C[C@H](NC(=O)[C@H](CC(=O)O)NC(=O)[C@H](CC(C)C)NC(=O)[C@H](Cc1ccc(O)cc1)NC(=O)[C@H](CCCNC(=N)N)NC(=O)[C@H](CO)NC(=O)[C@H](Cc1ccc(O)cc1)NC(=O)[C@H](CC(=O)O)NC(=O)[C@H](CO)NC(=O)[C@@H](NC(=O)[C@H](Cc1ccccc1)NC(=O)[C@@H](NC(=O)CNC(=O)[C@H](CCC(N)=O)NC(=O)[C@H](CO)NC(=O)[C@@H](N)Cc1c[nH]cn1)[C@@H](C)O)[C@@H](C)O)C(=O)N[C@@H](CCCNC(=N)N)C(=O)N[C@@H](CCCNC(=N)N)C(=O)N[C@@H](C)C(=O)N[C@@H](CCC(N)=O)C(=O)N[C@@H](CC(=O)O)C(=O)N[C@@H](Cc1ccccc1)C(=O)N[C@H](C(=O)N[C@@H](CCCCNC(=O)CC[C@H](NC(=O)CC[C@H](NC(=O)CC[C@H](NC(=O)CCCCCCCCCCCCCCCCC(=O)O)C(=O)O)C(=O)O)C(=O)O)C(=O)N[C@@H](Cc1c[nH]c2ccccc12)C(=O)N[C@@H](CC(C)C)C(=O)N[C@@H](CC(C)C)C(=O)N[C@@H](CO)C(=O)N[C@H](C(=O)O)[C@@H](C)O)C(C)C [Example 29, N^ε24-[(4S)-4-carboxy-4-[[(4S)-4-carboxy-4-[[(4S)-4-carboxy-4-(17-carboxyheptadecanoylamino)butanoyl]amino]butanoyl]amino]butanoyl]-[Arg^12,Leu^16,Lys^24,Leu^27,Ser^28]-Glucagon] (H-HSQGTFTSDYSRYLDLRRAQDFVK([γGlu-γGlu-γGlu-C18 diacid])WLLST-OH) | 1.32 | 2.8 |
| CC(C)C[C@H](NC(=O)[C@H](Cc1ccc(O)cc1)NC(=O)[C@H](CCCNC(=N)N)NC(=O)[C@H](CO)NC(=O)[C@H](Cc1ccc(O)cc1)NC(=O)[C@H](CC(=O)O)NC(=O)[C@H](CO)NC(=O)[C@@H](NC(=O)[C@H](Cc1ccccc1)NC(=O)[C@@H](NC(=O)CNC(=O)[C@H](CCC(N)=O)NC(=O)[C@H](CO)NC(=O)[C@@H](N)Cc1c[nH]cn1)[C@@H](C)O)[C@@H](C)O)C(=O)N[C@@H](CC(=O)O)C(=O)N[C@@H](C)C(=O)N[C@@H](CCCNC(=N)N)C(=O)N[C@@H](CCCNC(=N)N)C(=O)N[C@@H](C)C(=O)N[C@@H](CCC(N)=O)C(=O)N[C@@H](CC(=O)O)C(=O)N[C@@H](Cc1ccccc1)C(=O)N[C@H](C(=O)N[C@@H](CCCCNC(=O)CC[C@H](NC(=O)CC[C@H](NC(=O)CC[C@H](NC(=O)CCCCCCCCCCCCCCCCC(=O)O)C(=O)O)C(=O)O)C(=O)O)C(=O)N[C@@H](Cc1c[nH]c2ccccc12)C(=O)N[C@@H](CC(C)C)C(=O)N[C@@H](CC(C)C)C(=O)N[C@@H](CO)C(=O)N[C@H](C(=O)O)[C@@H](C)O)C(C)C [Example 92, N^ε24-[(4S)-4-carboxy-4-[[(4S)-4-carboxy-4-[[(4S)-4-carboxy-4-(17-carboxyheptadecanoylamino)butanoyl]amino]butanoyl]amino]butanoyl]-[Arg12,Ala16,Lys24,Leu27,Ser28]-Glucagon] (H-HSQGTFTSDYSRYLDARRAQDFVK([γGlu-γGlu-γGlu-C18 diacid])WLLST-OH) | 0.066 | 6.5 |
| CC(C)C[C@H](NC(=O)[C@H](Cc1ccc(O)cc1)NC(=O)[C@H](CCCCN)NC(=O)[C@H](CO)NC(=O)[C@H](Cc1ccc(O)cc1)NC(=O)[C@H](CC(=O)O)NC(=O)[C@H](CO)NC(=O)[C@@H](NC(=O)[C@H](Cc1ccccc1)NC(=O)[C@@H](NC(=O)CNC(=O)[C@H](CCC(N)=O)NC(=O)[C@H](CO)NC(=O)[C@@H](N)Cc1c[nH]cn1)[C@@H](C)O)[C@@H](C)O)C(=O)N[C@@H](CCC(=O)O)C(=O)N[C@@H](CO)C(=O)N[C@@H](CCCNC(=N)N)C(=O)N[C@@H](CCCNC(=N)N)C(=O)N[C@@H](C)C(=O)N[C@@H](CCC(N)=O)C(=O)N[C@@H](CC(=O)O)C(=O)N[C@@H](Cc1ccccc1)C(=O)N[C@H](C(=O)N[C@@H](CCCCNC(=O)CC[C@H](NC(=O)CC[C@H](NC(=O)COCCOCCNC(=O)COCCOCCNC(=O)CC[C@H](NC(=O)CCCCCCCCCCCCCCCCC(=O)O)C(=O)O)C(=O)O)C(=O)O)C(=O)N[C@@H](Cc1c[nH]c2ccccc12)C(=O)N[C@@H](CC(C)C)C(=O)N[C@@H](CC(C)C)C(=O)N[C@@H](CO)C(=O)N[C@H](C(N)=O)[C@@H](C)O)C(C)C [Example 58, N^ε24-[(4S)-4-carboxy-4-[[(4S)-4-carboxy-4-[[2-[2-[2-[[2-[2-[2-[[(4S)-4-carboxy-4-(17-carboxyheptadecanoylamino)butanoyl]amino]ethoxy]ethoxy]acetyl]amino]ethoxy]ethoxy]acetyl]amino]butanoyl]amino]butanoyl]-[Glu15,Lys24,Leu27,Ser28]-Glucagon amide] | 0.134 | 7.3 |
